{"source": "patent US7767682B2", "about": "“Medicaments” (GlaxoSmithKline LLC, priority 2005, dated 2010)", "key": {"MDCK-C7 cells [1]": {"system": "MDCK-C7 cells", "assay": "Transepithelial resistance of MDCK-C7 monolayers (indication of cellular viability)", "format": "cell-based, canine", "conditions": "at concentrations >10 μM; SCC response not measurable", "protocol": "(§1) Nucleopore filters (4.7 cm^2) containing confluent MDCK-C7 cells (10-16 days) were removed from the Transwell chambers and clamped between the halves of an Ussing chamber (World Precision Instruments, Sarasota, Fla.). Each half of the chamber contained a tapered fluid compartment with openings for voltage electrodes (close to the epithelial membrane) and current electrodes (at the opposite end of the chamber). The fluid chamber was water jacketed to maintain constant temperature (37° C.). The cells were bathed in serum-free MEM. The media were circulated in the chambers by means of a 5%CO2/O2 gas lift. The electrodes were connected to a voltage-clamp amplifier (Current Voltage Clamp; World Precision Instruments) for measurement of net ion flux as monitored under short-circuit conditions (SCC; short circuit current) [Ussing, 1951]. Transepithelial resistance was calculated by applying a 2-mV pulse across the epithelium and measuring the resultant deflection in SCC. Data from cultures were used only if they maintained a resistance >1000 W cm^2. Transepithelial resistance (an indication of cellular viability) was monitored throughout the entire duration of each electrophysiological experiment by pulsing the tissues with a 2000 μV pulse every 200 seconds. Resistance values were calculated from the resulting current deflections using Ohm's law."}, "MDCK-C7 cells [2]": {"system": "MDCK-C7 cells", "assay": "Short-circuit current (SCC) ion transport response to ADH in MDCK-C7 monolayers in Ussing chambers", "format": "cell-based, canine", "conditions": "for initial rapid transient SCC response to ADH: 18 hrs pre-incubation before ADH", "protocol": "The Madin-Darby canine kidney (MDCK) cell line expresses many characteristics of the renal collecting duct. The MDCK-C7 subclone forms a high-resistance, hormone-responsive model of the principal cells, which are found in distal sections of the renal tubule. The electrophysiological technique of short-circuit current measurement has been used to examine the response to antidiuretic hormone (ADH) in the MDCK-C7 clone.\nThe MDCK-C7cells were grown in a 37° C. humidified incubator with a 5% CO2 and […] gas mixture. Initially the cells were grown in 75 cm^2 flasks and fed with Minimal Media with Earle's salts, non-essential amino acids and L-glutamine (MEM; Gibco/BRL, Grand Island, N.Y., USA) supplemented with 10% fetal bovine serum (Sigma), 26 mM NaHCO3 and adjusted to pH 7.0. The confluent cells were subcultured by trypsinization and the cells were seeded (5.4×10^4 cell/cm^2) onto Nucleopore polycarbonate membranes forming the bottom of Transwell chambers (Costar, Cambridge, Mass., USA). The Transwell chambers were placed in specially designed tissue culture plates to form a two compartment system in which media are added to both apical and basolateral surfaces. The media were aspirated and replaced three times per week. The cells were used between passages 73 and 96.\nas §1, with “The electrodes were connected to a voltage-clamp amplifier (Current Voltage Clamp; World Precision Instruments) for measurement of net ion flux as monitored under short-circuit conditions (SCC; short circuit current) [Ussing, 1951].” left out\nThe cultures were placed in the Ussing chambers and incubated under short-circuited conditions until a steady baseline transport was achieved (0.5-1 h). In the experiments to characterize the ADH-induced ion transport phenomena, the cultures were pre-incubated with the inhibitors 30 minutes prior to the addition of ADH. In the experiments with GI262570X, compound was added 18 hrs. prior to the addition of ADH. ADH was added to the serosal bathing media; amiloride was added to the apical media 30 min after ADH to determine the portion of the transport due to flux through the amiloride-sensitive Na^+ channel. The concentrations of effectors used were: ADH, 0.1 IU/ml; amiloride, 30 μM; NPPB, 500 μM; verapamil, 25 μM, and GI262570X (concentration range from 1 nM -1 μM). Each experiment was performed using matched cultures grown in parallel. The data are presented as means±SE with n indicating the number of different experiments."}}, "note": "“Also recorded” adds a separate entry of the source. Counter-ions that a name gives are not always drawn. Bridge positions count the residues as written; N and C are the ends. Ends that are not written are not given here."}
{"compound": "Cc1oc(-c2ccccc2)nc1CCOc1ccc(C[C@H](Nc2ccccc2C(=O)c2ccccc2)C(=O)O)cc1", "note": "[GI262570X, N-(2-benzoylphenyl)-O-[2-(5-methyl-2-phenyl-4-oxazolyl)ethyl]-L -tyrosine]", "values": [{"measurement": "cellular resistance of the monolayers", "setting": "MDCK-C7 cells [1]", "value": "< 500", "unit": "ohm cm^2"}, {"measurement": "effects on the other phases of the SCC response to ADH", "setting": "MDCK-C7 cells [2]; 100 nM or 1 μM, 18 hrs pre-incubation", "value": "no significant effects"}, {"measurement": "initial rapid transient SCC response to ADH", "setting": "MDCK-C7 cells [2]; 100 nM, n=4, p<0.05 vs controls", "value": "significantly attenuated"}, {"measurement": "initial rapid transient SCC response to ADH", "setting": "MDCK-C7 cells [2]; 1 μM, n=4, p<0.01 vs controls", "value": "significantly attenuated"}, {"measurement": "effect on baseline SCC", "setting": "MDCK-C7 cells [2]; -10 to 0 minutes, before ADH, 18 hrs pre-incubation", "value": "no compound-related effect"}, {"measurement": "CFTR-mediated anion secretion in response to ADH stimulation", "setting": "MDCK-C7 cells [2]; MDCK-C7 cells, summary statement", "value": "decreased"}, {"measurement": "initial rapid transient response to ADH", "setting": "MDCK-C7 cells [2]; over the concentration range of 1 nM - 1 μM", "value": "inhibited"}]}
{"compound": "N=C(N)NC(=O)c1nc(Cl)c(N)nc1N", "note": "[amiloride, amiloride hydrochloride, reference compound]", "values": [{"measurement": "later sustained SCC (ion transport) response to ADH", "setting": "MDCK-C7 cells [2]; amiloride 30 μM, apical media, hydrochloride", "value": "only blocks the later sustained SCC response; also recorded: decrease"}]}
{"compound": "[arg]-vasopressin (CYFQNCPRG-NH2; disulfide 1-6; UniProt P01185 20-28, looked up) [ADH, antidiuretic hormone used to stimulate ion transport, reference compound]", "values": [{"measurement": "short circuit current response on stimulation", "setting": "MDCK-C7 cells [2]; 100 mU/ml, serosal bathing media, multiphasic response", "value": "rapid increase in short circuit current"}]}
{"compound": "O=C(O)c1cc([N+](=O)[O-])ccc1NCCCc1ccccc1", "note": "[NPPB, reference compound]", "values": [{"measurement": "rapid transient ion transport response to ADH", "setting": "MDCK-C7 cells [2]; 500 μM, added to apical bathing medium, 30 minutes before ADH", "value": "significantly diminish"}]}
